Test system: GL261 murine glioma cells
Assay: Microglia stimulated glioma invasion, Matrigel-coated invasion chamber coculture assay
Format: cell-based
Details: 250 nM CCR1 antagonist, 48 hours, GL261 cocultured with microglia, vs DMSO; FIG. 1
Method: Microglial stimulation of glioma invasion. CCR1 antagonists were screened using the glioblastoma cells and microglia invasion assay described below.
GL261 murine glioma cells expressing the fluorescent protein m-Cherry and microglial (MG) cells stained with cell tracker green (CMFDA; Invitrogen) were cocultured on Matrigel-coated invasion chambers (Becton, Dickinson and Company). Cells were plated at a density per invasion chamber of 100,000 labeled GL261 cells with an additional 150,000 unlabelled GL261 cells or with 50,000 unlabelled GL261 and 50,000 MG cells in M-SFM with 0.3% BSA. Invasion chambers were incubated for 48 hours in the presence of DMSO, or 250 nM of the CCR1 antagonist, after which they were fixed in 3.7% paraformaldehyde in PBS. Imaging of the cells on the bottom of the filter was performed using an AMG EVOS epifluorescent microscope. The extent of invasion was quantified by counting the number of glioblastoma cells (green) that were on the underside of the filter in at least seven 10× fields. The final number of invasive cells in the control was multiplied by 0.75 to normalize.

Cc1nnc([C@H]2CCCN2C(=O)Nc2ccc(C(F)(F)F)cc2)n1Cc1ccc(Cl)cc1 [Compound #1]
reduction in the number of invasive glioma cells: greater than 50%
